Results on nine compounds are retold here after patent US11566028B2, “Bicyclic heterocycles as FGFR inhibitors” (Incyte Corporation, priority 2019, dated 2023).

Format in all cases: biochemical
The target in assay [1] is wild-type un-phosphorylated FGFR3 protein (Homo sapiens (Human), UniProt P22607). As to the kind of experiment: FGFR Enzymatic Assay (FRET peptide phosphorylation), FGFR3. To be noted: pre-incubated for 4 hours.
The target in a further assay is FGFR1 (Homo sapiens (Human), UniProt P11362). As to the kind of experiment: FGFR Enzymatic Assay (FRET peptide phosphorylation), FGFR1. To be noted: pre-incubated for 4 hours.
A further assay deals with FGFR2 (Homo sapiens (Human), UniProt P21802). As to the kind of experiment: FGFR Enzymatic Assay (FRET peptide phosphorylation), FGFR2.
The target in a further assay is FGFR4 (Homo sapiens (Human), UniProt P22455). As to the kind of experiment: FGFR Enzymatic Assay (FRET peptide phosphorylation), FGFR4.

SMILES strings stand for the structures. Where two headings read alike, the source gives them in different places. Where only a bound is given, the exact number is not on record here.

FGFR4, sequence (P22455 22-802): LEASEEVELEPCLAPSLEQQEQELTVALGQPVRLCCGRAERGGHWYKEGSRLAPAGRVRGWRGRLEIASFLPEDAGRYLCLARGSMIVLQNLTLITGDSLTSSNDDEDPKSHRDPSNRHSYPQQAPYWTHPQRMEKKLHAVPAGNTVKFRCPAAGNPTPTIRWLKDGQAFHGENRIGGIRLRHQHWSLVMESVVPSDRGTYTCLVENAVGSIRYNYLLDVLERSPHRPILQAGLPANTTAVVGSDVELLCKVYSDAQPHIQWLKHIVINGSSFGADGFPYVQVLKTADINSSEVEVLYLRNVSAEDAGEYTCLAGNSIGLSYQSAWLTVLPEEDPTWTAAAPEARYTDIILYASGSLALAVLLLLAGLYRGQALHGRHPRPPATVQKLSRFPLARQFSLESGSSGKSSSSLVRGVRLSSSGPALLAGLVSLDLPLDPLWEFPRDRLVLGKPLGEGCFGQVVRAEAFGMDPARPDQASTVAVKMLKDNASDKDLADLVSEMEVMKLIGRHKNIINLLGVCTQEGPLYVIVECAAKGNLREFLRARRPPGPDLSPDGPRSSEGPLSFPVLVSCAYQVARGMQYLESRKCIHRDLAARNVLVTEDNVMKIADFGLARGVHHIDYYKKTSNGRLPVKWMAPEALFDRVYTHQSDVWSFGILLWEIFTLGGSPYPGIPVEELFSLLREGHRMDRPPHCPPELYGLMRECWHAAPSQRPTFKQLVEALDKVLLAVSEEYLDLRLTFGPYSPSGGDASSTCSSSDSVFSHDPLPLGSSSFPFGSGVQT
FGFR1, sequence (P11362 22-822): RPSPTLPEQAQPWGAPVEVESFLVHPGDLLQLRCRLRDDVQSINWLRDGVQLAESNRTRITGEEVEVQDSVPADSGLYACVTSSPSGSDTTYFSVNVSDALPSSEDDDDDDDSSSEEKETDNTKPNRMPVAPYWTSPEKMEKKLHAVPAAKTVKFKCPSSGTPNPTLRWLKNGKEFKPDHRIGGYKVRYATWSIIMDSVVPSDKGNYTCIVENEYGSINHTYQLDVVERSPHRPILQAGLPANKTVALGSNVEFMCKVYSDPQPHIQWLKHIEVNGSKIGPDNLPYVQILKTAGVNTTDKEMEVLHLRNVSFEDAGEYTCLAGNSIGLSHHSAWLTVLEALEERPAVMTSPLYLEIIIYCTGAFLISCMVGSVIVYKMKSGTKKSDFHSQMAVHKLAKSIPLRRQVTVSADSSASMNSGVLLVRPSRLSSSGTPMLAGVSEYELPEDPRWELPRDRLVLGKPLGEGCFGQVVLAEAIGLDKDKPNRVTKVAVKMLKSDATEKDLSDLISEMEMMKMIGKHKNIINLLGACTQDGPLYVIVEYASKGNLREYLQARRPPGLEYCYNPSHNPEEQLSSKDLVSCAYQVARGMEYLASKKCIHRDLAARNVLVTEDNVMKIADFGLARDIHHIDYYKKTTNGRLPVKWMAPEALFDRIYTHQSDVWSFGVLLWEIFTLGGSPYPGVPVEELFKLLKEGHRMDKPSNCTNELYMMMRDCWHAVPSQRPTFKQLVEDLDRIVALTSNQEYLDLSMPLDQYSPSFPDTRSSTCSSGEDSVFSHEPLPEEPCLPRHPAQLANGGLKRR
wild-type un-phosphorylated FGFR3 protein, sequence (P22607 23-806): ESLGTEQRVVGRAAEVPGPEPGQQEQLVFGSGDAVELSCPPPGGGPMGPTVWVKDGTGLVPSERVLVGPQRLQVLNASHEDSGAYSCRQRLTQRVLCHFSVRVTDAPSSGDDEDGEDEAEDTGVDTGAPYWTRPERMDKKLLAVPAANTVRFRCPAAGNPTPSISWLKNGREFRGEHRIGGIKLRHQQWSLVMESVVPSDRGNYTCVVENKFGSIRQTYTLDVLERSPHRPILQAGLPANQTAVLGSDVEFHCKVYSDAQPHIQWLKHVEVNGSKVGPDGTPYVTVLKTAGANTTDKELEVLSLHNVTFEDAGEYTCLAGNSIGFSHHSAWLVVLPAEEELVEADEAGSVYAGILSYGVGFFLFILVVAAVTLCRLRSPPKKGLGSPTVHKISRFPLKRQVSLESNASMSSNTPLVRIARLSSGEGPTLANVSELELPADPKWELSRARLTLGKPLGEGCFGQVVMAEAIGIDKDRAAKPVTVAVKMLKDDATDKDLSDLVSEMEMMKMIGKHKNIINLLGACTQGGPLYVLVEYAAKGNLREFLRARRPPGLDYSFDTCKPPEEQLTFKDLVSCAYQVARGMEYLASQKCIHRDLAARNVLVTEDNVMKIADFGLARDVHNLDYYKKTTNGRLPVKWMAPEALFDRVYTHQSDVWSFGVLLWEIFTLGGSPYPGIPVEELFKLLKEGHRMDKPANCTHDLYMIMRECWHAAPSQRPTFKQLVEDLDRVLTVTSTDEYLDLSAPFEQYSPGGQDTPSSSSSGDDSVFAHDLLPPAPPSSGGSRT
FGFR2, sequence (P21802 22-821): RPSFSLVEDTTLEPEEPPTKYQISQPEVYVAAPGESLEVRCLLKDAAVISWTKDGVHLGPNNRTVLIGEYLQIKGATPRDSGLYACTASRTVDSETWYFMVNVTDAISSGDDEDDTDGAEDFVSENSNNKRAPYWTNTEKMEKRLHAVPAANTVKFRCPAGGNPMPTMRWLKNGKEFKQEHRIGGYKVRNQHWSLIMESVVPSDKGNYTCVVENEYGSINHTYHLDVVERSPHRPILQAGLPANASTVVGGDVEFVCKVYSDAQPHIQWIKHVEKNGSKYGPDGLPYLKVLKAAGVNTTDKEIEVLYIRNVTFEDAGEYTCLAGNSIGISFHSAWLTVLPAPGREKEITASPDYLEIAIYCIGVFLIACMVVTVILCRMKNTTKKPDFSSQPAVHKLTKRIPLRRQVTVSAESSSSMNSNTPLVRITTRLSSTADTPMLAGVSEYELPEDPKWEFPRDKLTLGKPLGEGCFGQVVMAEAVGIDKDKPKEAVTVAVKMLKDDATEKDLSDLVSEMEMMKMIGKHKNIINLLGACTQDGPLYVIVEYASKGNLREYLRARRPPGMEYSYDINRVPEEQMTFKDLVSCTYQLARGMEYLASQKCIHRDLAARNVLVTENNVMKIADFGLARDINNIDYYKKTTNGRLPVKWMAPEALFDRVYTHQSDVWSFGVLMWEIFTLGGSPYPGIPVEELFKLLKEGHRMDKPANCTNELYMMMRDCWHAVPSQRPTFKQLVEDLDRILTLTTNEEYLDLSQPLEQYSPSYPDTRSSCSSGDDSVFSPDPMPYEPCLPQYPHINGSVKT

In general, IC50 refers to the midpoint of a concentration-inhibition curve. `CNC(=O)c1cc(C)c(F)c(-c2cnn3cc(-c4cnn([C@@H]5CCN(C)C[C@H]5F)c4)c(N[C@H]4CCOC4)nc23)c1` [Example 65, 4-Fluoro-3-(6-(1-((3R,4R)-3-fluoro-1-methylpiperidin-4-yl)-1H-pyrazol-4-yl)-5-(((S)-tetrahydrofuran-3-yl)amino)pyrazolo[1,5-a]pyrimidin-3-yl)-N,5-dimethylbenzamide]: the IC50 is under 10 nM in assay [1], 10 to 30 nM against FGFR1, under 10 nM on FGFR2 (pre-incubated for 4 hours) and 30 to 200 nM on FGFR4 (pre-incubated for 4 hours).

Take `CCNC(=O)c1cncc(-c2cnn3cc(-c4ccn(C)n4)c(N[C@H]4CCOC4)nc23)c1` [Example 61, (S)—N-Ethyl-5-(6-(1-methyl-1H-pyrazol-3-yl)-5-((tetrahydrofuran-3-yl)amino)pyrazolo[1,5-a]pyrimidin-3-yl)nicotinamide]: the IC50 in assay [1] is under 10 nM; against FGFR1, 30 to 200 nM; at FGFR2 (pre-incubated for 4 hours), under 10 nM; against FGFR4 (pre-incubated for 4 hours) it was 30 to 200 nM.

In the case of `CNC(=O)c1cncc(-c2cnn3cc(-c4ccn(C)n4)c(N[C@H]4CCOC4)nc23)c1` [Example 59, (S)—N-Methyl-5-(6-(1-methyl-1H-pyrazol-3-yl)-5-((tetrahydrofuran-3-yl)amino)pyrazolo[1,5-a]pyrimidin-3-yl)nicotinamide], the half-maximal inhibitory concentration (IC50) in assay [1] is under 10 nM; against FGFR1, under 10 nM; against FGFR2 (pre-incubated for 4 hours), under 10 nM; on FGFR4 (pre-incubated for 4 hours), 10 to 30 nM.

With `CNC(=O)c1cc(C)c(F)c(-c2cnn3cc(-c4cnn(C)c4)c(OC4CCOC4)nc23)c1` (racemic) [Example 4, 4-Fluoro-N,3-dimethyl-5-(6-(1-methyl-1H-pyrazol-4-yl)-5-((tetrahydrofuran-3-yl)oxy)pyrazolo[1,5-a]pyrimidin-3-yl)benzamide], the concentration for half-maximal inhibition (IC50) is under 10 nM in assay [1], 30 to 200 nM at FGFR1, under 10 nM against FGFR2 (pre-incubated for 4 hours) and 30 to 200 nM on FGFR4 (pre-incubated for 4 hours).

On to `Cn1cc(-c2cn3ncc(-c4cccc(-c5cc[nH]n5)c4)c3nc2O[C@H]2CCOC2)cn1` [Example 51, (S)-3-(3-(1H-Pyrazol-3-yl)phenyl)-6-(1-methyl-1H-pyrazol-4-yl)-5-((tetrahydrofuran-3-yl)oxy)pyrazolo[1,5-a]pyrimidine], for which the IC50 is under 10 nM in assay [1], 10 to 30 nM on FGFR1, under 10 nM against FGFR2 (pre-incubated for 4 hours) and at least 200 nM against FGFR4 (pre-incubated for 4 hours).

Take `CNC(=O)c1cc(F)c(F)c(-c2cnn3cc(-c4cnn(CCN5CCOCC5)c4)c(N[C@H]4CCOC4)nc23)c1` [Example 55, (S)-3,4-Difluoro-N-methy1-5-(6-(1-(2-morpholinoethyl)-1H-pyrazol-4-y1)-5-((tetrahydrofuran-3-yl)amino)pyrazolo[1,5-a]pyrimidin-3-yl)benzamide]: the IC50 in assay [1] was under 10 nM; against FGFR1, under 10 nM; on FGFR2 it was under 10 nM; against FGFR4 it was 30 to 200 nM.

Take `CNC(=O)c1cc(C)c(F)c(-c2cnn3cc(-c4cnc(C)o4)c(N[C@H]4CCOC4)nc23)c1` [Example 42, (S)-4-Fluoro-N,3-dimethyl-5-(6-(2-methyloxazol-5-y1)-5-((tetrahydrofuran-3-yl)amino)pyrazolo[1,5-a]pyrimidin-3-yl)benzamide]: the half-maximal inhibitory concentration (IC50) in assay [1] is under 10 nM; on FGFR1, 10 to 30 nM; against FGFR2, under 10 nM; against FGFR4 it was 30 to 200 nM.

For `CNC(=O)c1cc(C)c(F)c(-c2cnn3cc(-c4cnn(C5CCN(C)CC5)c4)c(N[C@H]4CCOC4)nc23)c1` [Example 34, (S)-4-Fluoro-N,3-dimethyl-5-(6-(1-(1-methylpiperidin-4-yl)-1H-pyrazol-4-yl)-5-((tetrahydrofuran-3-yl)amino)pyrazolo[1,5-a]pyrimidin-3-yl)benzamide], the concentration for half-maximal inhibition (IC50) in assay [1] is under 10 nM; on FGFR1, 10 to 30 nM; against FGFR2 (pre-incubated for 4 hours), under 10 nM; at FGFR4 (pre-incubated for 4 hours) it was 30 to 200 nM.

`CNC(=O)c1cc(C)c(F)c(-c2cnn3cc(-c4cnn(CC(C)(C)O)c4)c(N[C@H]4CCOC4)nc23)c1` [Example 40, (S)-4-Fluoro-3-(6-(1-(2-hydroxy-2-methylpropy1)-1H-pyrazol-4-y1)-5-((tetrahydrofuran-3-yl)amino)pyrazolo[1,5-a]pyrimidin-3-y1)-N,5-dimethylbenzamide]: the half-maximal inhibitory concentration (IC50) in assay [1] was under 10 nM; on FGFR1, 10 to 30 nM; against FGFR2, under 10 nM; against FGFR4, 30 to 200 nM.
